Measured values from US11530198B2, “Compositions and methods for treating infections” (priority 2016, dated 2022).
Where two headings read alike, the source gives them in different places.

What was measured:
[1] = target: P. falciparum DHFR (pfDHFR) (Plasmodium falciparum (isolate K1 / Thailand), UniProt P13922); experiment: DHFR inhibition assay (diaphorase/resazurin coupled), P. falciparum DHFR; assay type: biochemical; conditions: for pfDHFR pIC50-DHFR primary assay: Table 15, P. falciparum DHFR
T. brucei DHFR (tbDHFR) = T. brucei DHFR (tbDHFR) (Trypanosoma brucei brucei, UniProt Q27783); experiment: DHFR inhibition assay (diaphorase/resazurin coupled), T. brucei DHFR; assay type: biochemical; conditions: Table 13; T. brucei DHFR
hDHFR = hDHFR (Homo sapiens (Human), UniProt P00374); experiment: DHFR inhibition assay (diaphorase/resazurin coupled, fluorescence of resorufin), human DHFR; assay type: biochemical
T. gondii DHFR (tgDHFR) = T. gondii DHFR (tgDHFR) (Toxoplasma gondii, UniProt Q07422); conditions: for Average DHFR selectivity (h/tg): hDHFR IC50/tgDHFR IC50
L. major DHFR (1mDHFR) = L. major DHFR (1mDHFR) (Leishmania major, UniProt P07382); assay type: biochemical; conditions: for Average DHFR selectivity (h/lm)*-DHFR IC50: hDHFR IC50/L. major DHFR IC50
T. cruzi DHFR (tcDHFR) = T. cruzi DHFR (tcDHFR) (Trypanosoma cruzi, UniProt Q27793); experiment: DHFR inhibition assay (diaphorase/resazurin coupled), T. cruzi DHFR; assay type: biochemical; conditions: Table 12; T. cruzi DHFR

Sequence of hDHFR (P00374 whole entry): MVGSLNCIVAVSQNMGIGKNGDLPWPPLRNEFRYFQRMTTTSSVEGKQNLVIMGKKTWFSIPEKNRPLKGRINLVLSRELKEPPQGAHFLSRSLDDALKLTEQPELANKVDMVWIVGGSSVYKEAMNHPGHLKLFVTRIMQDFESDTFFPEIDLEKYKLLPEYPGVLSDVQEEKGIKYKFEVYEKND

COc1ncc(-c2cccc(N3CCN(c4cnc(N)nc4N)CC3)c2)cn1 [Compound 78, 5-(4-(3-(2-methoxypyrimidin-5-yl)phenyl)piperazin-1-yl)pyrimidine-2,4-diamine]
pfDHFR pIC50-DHFR primary assay [1]: 9.15 | tbDHFR pIC50-DHFR primary assay (T. brucei DHFR (tbDHFR)): 8.68 | hDHFR pIC50-DHFR primary assay (hDHFR; Table 11): 5.92 | hDHFR pIC50-DHFR primary assay (hDHFR; Table 13): 6.05 | hDHFR pIC50-DHFR primary assay (hDHFR; Table 15): 6.04 | tgDHFR pIC50-DHFR primary assay (T. gondii DHFR (tgDHFR); Table 11, T. gondii DHFR): 8.49

Nc1ncc(N2CCN(c3cnc4ccccc4c3)CC2)c(N)n1 [Compound 19, 5-(4-(quinolin-3-yl)piperazin-1-yl)pyrimidine-2,4-diamine]
Average DHFR selectivity (h/lm)*-DHFR IC50 (L. major DHFR (1mDHFR)): 35

CCCc1nc(N)nc(N)c1N1CCN(c2ccccc2)CC1 [Compound 49, 5-(4-phenylpiperazin-1-yl)-6-propylpyrimidine-2,4-diamine]
pfDHFR pIC50-DHFR primary assay [1]: 7.85 | Average DHFR selectivity (h/pf)*-DHFR IC50 ([1]; hDHFR IC50/pfDHFR IC50): 806 | Average DHFR selectivity (h/tg) (T. gondii DHFR (tgDHFR)): 501.19

Nc1ncc(N2CCN(c3ccc(-c4ccccc4)cc3)CC2)c(N)n1 [Compound 12, 5-(4-([1,1′-biphenyl]-4-yl)piperazin-1-yl)pyrimidine-2,4-diamine]
Average DHFR selectivity (h/lm)*-DHFR IC50 (L. major DHFR (1mDHFR)): 29

Nc1ncc(N2CCN(c3cccc(-c4cnc(N5CCC5)nc4)c3)CC2)c(N)n1 [Compound 98, 5-(4-(3-(2-(azetidin-1-yl)pyrimidin-5-yl)phenyl)piperazin-1-yl)pyrimidine-2,4-diamine]
Average DHFR selectivity (h/lm)*-DHFR IC50 (L. major DHFR (1mDHFR)): 48 | Average DHFR selectivity (h/tg) (T. gondii DHFR (tgDHFR)): 130.84

Nc1ncc(N2CCN(c3cccc(-c4ccnc(F)c4)c3)CC2)c(N)n1 [Compound 90, 5-(4-(3-(2-fluoropyridin-4-yl)phenyl)piperazin-1-yl)pyrimidine-2,4-diamine]
Average DHFR selectivity (h/lm)*-DHFR IC50 (L. major DHFR (1mDHFR)): 27

Nc1ncc(N2CCN(c3cccc(-c4cccnn4)c3)CC2)c(N)n1 [Compound 107]
Average DHFR selectivity (h/lm)*-DHFR IC50 (L. major DHFR (1mDHFR)): 30

CN(Cc1cnc2nc(N)nc(N)c2n1)c1ccc(C(=O)N[C@@H](CCC(=O)O)C(=O)O)cc1 [Methotrexate]
tcDHFR pIC50-DHFR primary assay (T. cruzi DHFR (tcDHFR)): 8.96

Nc1ncc(N2CCN(c3ccccc3)CC2)c(N)n1 [Compound 4, 5-(4-phenylpiperazin-1-yl)pyrimidine-2,4-diamine]
pfDHFR pIC50-DHFR primary assay [1]: 8.72 | tbDHFR pIC50-DHFR primary assay (T. brucei DHFR (tbDHFR)): 7.50 | mDHFR pIC50-DHFR primary assay (L. major DHFR (1mDHFR); Table 14, L. major DHFR): 6.30 | tcDHFR pIC50-DHFR primary assay (T. cruzi DHFR (tcDHFR)): 7.04 | hDHFR pIC50-DHFR primary assay (hDHFR; Table 11): 4.90 | hDHFR pIC50-DHFR primary assay (hDHFR; Table 12): 4.90 | hDHFR pIC50-DHFR primary assay (hDHFR; Table 13): 4.90 | hDHFR pIC50-DHFR primary assay (hDHFR; Table 14): 4.90 | hDHFR pIC50-DHFR primary assay (hDHFR; Table 15): 4.90 | tgDHFR pIC50-DHFR primary assay (T. gondii DHFR (tgDHFR)): 6.68
